In the assay the target is Transcription factor p65 (Human, UniProt Q04206). In words: Inhibition of NF-kappaB p65 isolated from nuclear extract of human HeLa cells assessed as blockade of binding to biotinylated consesus sequence by chemiluminescence assay.
Transcription factor p65, sequence (Q04206 whole entry): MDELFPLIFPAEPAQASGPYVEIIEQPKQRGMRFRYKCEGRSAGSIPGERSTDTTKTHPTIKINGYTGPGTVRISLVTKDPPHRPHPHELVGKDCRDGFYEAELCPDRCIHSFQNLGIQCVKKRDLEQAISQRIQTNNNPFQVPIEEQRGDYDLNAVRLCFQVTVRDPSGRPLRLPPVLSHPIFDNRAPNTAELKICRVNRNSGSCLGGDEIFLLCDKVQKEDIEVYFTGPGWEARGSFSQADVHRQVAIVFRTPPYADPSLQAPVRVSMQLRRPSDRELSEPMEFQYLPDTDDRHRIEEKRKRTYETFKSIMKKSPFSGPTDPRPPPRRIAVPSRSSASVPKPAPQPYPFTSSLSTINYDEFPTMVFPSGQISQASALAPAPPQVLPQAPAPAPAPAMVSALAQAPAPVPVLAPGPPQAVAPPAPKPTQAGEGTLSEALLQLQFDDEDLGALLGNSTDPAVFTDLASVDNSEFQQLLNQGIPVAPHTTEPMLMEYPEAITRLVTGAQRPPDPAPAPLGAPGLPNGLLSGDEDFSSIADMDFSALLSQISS

With `COC(=O)[C@H]1[C@@H](O)[C@@]2(O)c3c(OC)cc(O[C@@H]4O[C@@H]([C@H](O)CO)CO[C@@H]4OC)cc3O[C@@]2(c2ccc(OC)cc2)[C@@H]1c1ccccc1` [5'''-episilvestrol], the IC50 was more than 20 µM.

These data come from BindingDB's records for doi:10.1021/np100503q (The Ohio State University, 2010).
